Measured values reported in US7276508B2, “Indole derivatives useful for the treatment of CNS disorders” (H. Lundbeck A/S, priority 2000, dated 2007).
Where a name gives a salt, the structure may show the parent alone.

Key:
[1] = target: T1, human cloned dopamine D4.2 receptors (Homo sapiens, UniProt P21917, DEL265-296); test: Inhibition of the binding of [3H]YM-09151-2 to human dopamine D4 receptors; conditions: [3H]YM-09151-2 0.06 nM, membranes of CHO cells; for inhibition at 0.05 µM / D4-bind. % inhibition of binding at 50 nM: at 50 nM compound; for inhibition at 0.05 µM: read-out: D4-bind. % inhibition of binding at 50 nM; for IC50: read-out: D4-bind. IC50
T1 construct: expressed in transfected cells; host or cells: CHO cells (membranes)
T1 sequence (P21917 with tags, fused parts or gaps DEL265-296): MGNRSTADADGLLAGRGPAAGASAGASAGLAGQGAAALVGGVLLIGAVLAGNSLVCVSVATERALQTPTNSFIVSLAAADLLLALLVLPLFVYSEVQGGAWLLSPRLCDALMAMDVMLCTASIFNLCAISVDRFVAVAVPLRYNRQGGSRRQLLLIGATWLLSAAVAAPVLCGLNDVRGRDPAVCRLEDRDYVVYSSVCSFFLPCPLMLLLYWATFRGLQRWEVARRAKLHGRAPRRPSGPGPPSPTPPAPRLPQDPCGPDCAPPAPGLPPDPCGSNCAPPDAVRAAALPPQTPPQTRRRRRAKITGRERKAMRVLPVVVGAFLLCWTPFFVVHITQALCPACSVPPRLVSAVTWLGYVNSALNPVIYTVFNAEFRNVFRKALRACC
Description: Inhibition of the Binding of [^3H]YM-09151-2 to Human Dopamine D4 Receptors
By this method, the inhibition by drugs of the binding of [^3H]YM-09151-2 (0.06 nM) to membranes of human cloned dopamine D4.2 receptors expressed in CHO-cells is determined in vitro. Method modified from NEN Life Science Products, Inc., technical data certificate PC2533-10/96.

inhibition at 0.05 µM [1] [%]	IC50 [1] [nM]	Compound	also measured
93	–	O=C(CCN1CCC(c2c[nH]c3cccc(F)c23)CC1)N1CCc2ccccc2C1 [Compound 10a, 4-Fluoro-3-{1-[3-(3,4-dihydro-1H-isoquinolin-2-yl)-3-oxopropan-1-yl]piperidin-4-yl}-1H-indole]	–
81	–	O=C(CCCN1CCC(c2c[nH]c3cccc(F)c23)CC1)N1CCc2ccccc2C1 [Compound 10b, 4-Fluoro-3-{1-[4-(3,4-dihydro-1H-isoquinolin-2-yl)-4-oxobutan-1-yl]piperidin-4-yl}-1H-indole]	–
21	–	O=C(CCCCCN1CCC(c2c[nH]c3cccc(F)c23)CC1)N1CCc2ccccc2C1 [Compound 10c, 4-Fluoro-3-{1-[6-(3,4-dihydro-1H-isoquinolin-2-yl)-6-oxohexan-1-yl]piperidin-4-yl}-1H-indole]	–
86	–	O=C(CCCN1CCC(c2c[nH]c3cccc(Cl)c23)CC1)N1CCc2ccccc2C1 [Compound 10d, 4-Chloro-3-{1-[4-(3,4-dihydro-1H-isoquinolin-2-yl)-4-oxobutan-1-yl]piperidin-4-yl}-1H-indole]	–
25	–	O=C(CCCCN1CCC(c2c[nH]c3cccc(Cl)c23)CC1)N1CCc2ccccc2C1 [Compound 10e, 4-Chloro-3-{1-[5-(3,4-dihydro-1H-isoquinolin-2-yl)-5-oxopentan-1-yl]piperidin-4-yl}-1H-indole]	–
17	–	O=C(CCCCCN1CCC(c2c[nH]c3cccc(Cl)c23)CC1)N1CCc2ccccc2C1 [Compound 10f, 4-Chloro-3-{1-[6-(3,4-dihydro-1H-isoquinolin-2-yl)-6-oxohexan-1-yl]piperidin-4-yl}-1H-indole]	–
65	–	O=C(CCCCN1CCC(c2c[nH]c3ccc(F)cc23)CC1)N1CCc2ccccc2C1 [Compound 10g, 5-Fluoro-3-{1-[5-(3,4-dihydro-1H-isoquinolin-2-yl)-5-oxopentan-1-yl]piperidin-4-yl}-1H-indole]	–
50	–	O=C(CCCCCN1CCC(c2c[nH]c3ccc(F)cc23)CC1)N1CCc2ccccc2C1 [Compound 10h, 5-Fluoro-3-{1-[6-(3,4-dihydro-1H-isoquinolin-2-yl)-6-oxohexan-1-yl]piperidin-4-yl}-1H-indole]	–
94	–	O=C(CCN1CCC(c2c[nH]c3cc(Cl)ccc23)CC1)N1CCc2ccccc2C1 [Compound 10i, 6-Chloro-3-{1-[3-(3,4-dihydro-1H-isoquinolin-2-yl)-3-oxopropan-1-yl]piperidin-4-yl}-1H-indole]	–
70	–	O=C(CCCCCN1CCC(c2c[nH]c3cc(Cl)ccc23)CC1)N1CCc2ccccc2C1 [Compound 10j, 6-Chloro-3-{1-[6-(3,4-dihydro-1H-isoquinolin-2-yl)-6-oxohexan-1-yl]piperidin-4-yl}-1H-indole]	–
95	–	O=C(CCCN1CCC(c2c[nH]c3c(Cl)cccc23)CC1)N1CCc2ccccc2C1 [Compound 10k, 7-Chloro-3-{1-[4-(3,4-dihydro-1H-isoquinolin-2-yl)-4-oxobutan-1-yl]piperidin-4-yl}-1H-indole]	–
69	–	O=C(CCCCCN1CCC(c2c[nH]c3c(Cl)cccc23)CC1)N1CCc2ccccc2C1 [Compound 10m, 7-Chloro-3-{1-[6-(3,4-dihydro-1H-isoquinolin-2-yl)-6-oxohexan-1-yl]piperidin-4-yl}-1H-indole]	–

Continued, compound first:

Compound	inhibition at 0.05 µM [1] [%]	IC50 [1] [nM]	also measured
O=C1CCc2ccccc2N1CCCCN1CCC(c2c[nH]c3ccc(F)cc23)CC1 (as salt: hydrochloride) [Compound 4, 5-Fluoro-3-{1-[4-(2-oxo-3,4-dihydro-2H-quinolin-1-yl)butan-1-yl]piperidin-4-yl}-1H-indole]	–	–	melting point: 212 to 213 °C
O=C1CCc2ccccc2N1CCCN1CC=C(c2c[nH]c3ccc(F)cc23)CC1 (as salt: oxalate) [Compound 3a, 5-Fluoro-3-{1-[3-(2-oxo-3,4-dihydro-2H-quinolin-1-yl)propan-1-yl]-3,6-dihydro-2H-pyridin-4-yl}-1H-indole]	–	–	melting point: 220 to 223 °C
O=C1CCc2ccccc2N1CCN1CCC(c2c[nH]c3ccc(F)cc23)CC1 [Compound 1a, 5-Fluoro-3-{1-[2-(2-oxo-3,4-dihydro-2H-quinolin-1-yl)ethyl]piperidin-4-yl}-1H-indole]	92	–	–
O=C1c2ccccc2CCN1CCCN1CCC(c2c[nH]c3ccc(F)cc23)CC1 [Compound 1b]	–	–	D4-bind. % inhibition of binding at 50 nM [1]: 97%
O=C1c2ccccc2CCN1CCCCN1CCC(c2c[nH]c3ccc(F)cc23)CC1 [Compound 1c]	–	–	D4-bind. % inhibition of binding at 50 nM [1]: 95%
O=C1CCc2ccccc2N1CCCN1CCC(c2c[nH]c3ccc(F)cc23)CC1 [Compound 2a, 5-Fluoro-3-{1-[3-(2-oxo-3,4-dihydro-2H-quinolin-1-yl)propan-1-yl]piperidin-4-yl}-1H-indole]	–	0.58	–
O=C1CCc2ccccc2N1CCCCCN1CCC(c2c[nH]c3ccc(F)cc23)CC1 [Compound 2b, 5-Fluoro-3-{1-[5-(2-oxo-3,4-dihydro-2H-quinolin-1-yl)pentan-1-yl]piperidin-4-yl}-1H-indole]	–	12	–
O=C1CCc2ccccc2N1CCCN1CCC(c2c[nH]c3ccc(Cl)cc23)CC1 [Compound 2c, 5-Chloro-3-{1-[3-(2-oxo-3,4-dihydro-2H-quinolin-1-yl)propan-1-yl]piperidin-4-yl}-1H-indole]	–	0.69	–
O=C1CCc2ccccc2N1CCCCN1CCC(c2c[nH]c3ccc(Cl)cc23)CC1 [Compound 2d, 5-Chloro-3-{1-[4-(2-oxo-3,4-dihydro-2H-quinolin-1-yl)butan-1-yl]piperidin-4-yl}-1H-indole]	–	8	–
O=C1CCc2ccccc2N1CCCCCN1CCC(c2c[nH]c3ccc(Cl)cc23)CC1 [Compound 2e, 5-Chloro-3-{1-[5-(2-oxo-3,4-dihydro-2H-quinolin-1-yl)pentan-1-yl]piperidin-4-yl}-1H-indole]	–	12	–
O=C1CCc2ccccc2N1CCCCN1CCC(c2c[nH]c3c(Cl)cccc23)CC1 [Compound 2f, 7-Chloro-3-{1-[4-(2-oxo-3,4-dihydro-2H-quinolin-1-yl)butan-1-yl]piperidin-4-yl}-1H-indole]	78	–	–
O=C1COc2ccccc2N1CCCCN1CCC(c2c[nH]c3ccc(F)cc23)CC1 [Compound 2g, 5-Fluoro-3-{1-[4-(3-oxo-3,4-dihydro-2H-1,4-benzoxazin-4-yl)butan-1-yl]piperidin-4-yl}-1H-indole]	–	7.5	–
O=C1COc2ccccc2N1CCCCN1CCC(c2c[nH]c3ccc(Cl)cc23)CC1 [Compound 2h, 5-Chloro-3-{1-[4-(3-oxo-3,4-dihydro-2H-1,4-benzoxazin-4-yl)butan-1-yl]piperidin-4-yl}-1H-indole]	–	10	–
O=C1CCc2ccccc2N1CCCN1CC=C(c2c[nH]c3ccc(F)cc23)CC1 [Compound 3a, 5-Fluoro-3-{1-[3-(2-oxo-3,4-dihydro-2H-quinolin-1-yl)propan-1-yl]-3,6-dihydro-2H-pyridin-4-yl}-1H-indole]	–	0.71	–
O=C1CCc2ccccc2N1CCCCN1CC=C(c2c[nH]c3ccc(F)cc23)CC1 [Compound 3b, 5-Fluoro-3-{1-[4-(2-oxo-3,4-dihydro-2H-quinolin-1-yl)butan-1-yl]-3,6-dihydro-2H-pyridin-4-yl}-1H-indole]	–	5	–
O=C1CCc2ccccc2N1CCCCCN1CC=C(c2c[nH]c3ccc(F)cc23)CC1 [Compound 3c, 5-Fluoro-3-{1-[5-(2-oxo-3,4-dihydro-2H-quinolin-1-yl)pentan-1-yl]-3,6-dihydro-2H-pyridin-4-yl}-1H-indole]	–	15	–
O=C1CCc2ccccc2N1CCCCN1CCC(c2c[nH]c3ccc(F)cc23)CC1 [Compound 4, 5-Fluoro-3-{1-[4-(2-oxo-3,4-dihydro-2H-quinolin-1-yl)butan-1-yl]piperidin-4-yl}-1H-indole]	–	4.8	–
O=C(CCCN1CCC(c2c[nH]c3ccc(F)cc23)CC1)N1CCc2ccccc2C1 [Compound 7, 5-Fluoro-3-{1-[4-(3,4-dihydro-1H-isoquinolin-2-yl)-4-oxobutan-1-yl]piperidin-4-yl}-1H-indole]	–	–	melting point: 146 to 148 °C
Fc1ccc2[nH]cc(C3=CCN(CCCN4CCCc5ccccc54)CC3)c2c1 [Compound 9l, 5-Fluoro-3-{1-[3-(3,4-dihydro-2H-quinolin-1-yl)propan-1-yl]-3,6-dihydro-2H-pyridin-4-yl}-1H-indole]	–	0.51	–
Fc1ccc2[nH]cc(C3=CCN(CCCCN4CCCc5ccccc54)CC3)c2c1 [Compound 9m, 5-Fluoro-3-{1-[4-(3,4-dihydro-2H-quinolin-1-yl)butan-1-yl]-3,6-dihydro-2H-pyridin-4-yl}-1H-indole]	–	17	–
Fc1ccc2[nH]cc(C3=CCN(CCCCCN4CCCc5ccccc54)CC3)c2c1 [Compound 9n, 5-Fluoro-3-{1-[5-(3,4-dihydro-2H-quinolin-1-yl)pentan-1-yl]-3,6-dihydro-2H-pyridin-4-yl}-1H-indole]	–	53	–
O=C(CCCCN1CCC(c2c[nH]c3c(Cl)cccc23)CC1)N1CCc2ccccc2C1 [Compound 10l]	–	–	D4-bind. % inhibition of binding at 50 nM [1]: 82%
